According to ChEMBL document CHEMBL1914417 (Bioorg Med Chem Lett, 2011):
pEC50, pIC50: −log10 of the molar value.

What was measured:
D(2) dopamine receptor = D(2) dopamine receptor (Homo sapiens, UniProt P14416); assay: Antagonist activity at dopamine D2 receptor; type: functional
[1] = target: T1, Muscarinic acetylcholine receptor M1 (Rattus norvegicus) (UniProt P08482); assay: Agonist activity at rat muscarinic M1 receptor expressed in CHO cells relative to acetylcholine; type: functional, cell-based
T1 sequence (whole entry): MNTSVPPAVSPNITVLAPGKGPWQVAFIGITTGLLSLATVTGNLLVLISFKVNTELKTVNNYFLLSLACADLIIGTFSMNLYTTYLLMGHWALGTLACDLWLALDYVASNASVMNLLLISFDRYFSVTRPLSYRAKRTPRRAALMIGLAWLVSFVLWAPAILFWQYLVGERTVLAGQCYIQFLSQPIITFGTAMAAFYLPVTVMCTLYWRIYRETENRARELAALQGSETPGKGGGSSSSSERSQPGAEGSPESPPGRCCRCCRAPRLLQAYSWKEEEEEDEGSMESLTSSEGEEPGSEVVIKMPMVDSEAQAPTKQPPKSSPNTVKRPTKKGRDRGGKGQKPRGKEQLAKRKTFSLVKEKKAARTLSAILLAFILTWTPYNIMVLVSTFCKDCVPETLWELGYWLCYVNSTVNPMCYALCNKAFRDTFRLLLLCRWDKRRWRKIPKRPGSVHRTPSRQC

[2] = target: T2, Muscarinic acetylcholine receptor M2 (Rattus norvegicus, UniProt P10980); assay: Agonist activity at rat muscarinic M2 receptor expressed in CHO cells; type: functional, cell-based
T2 sequence (P10980 whole entry): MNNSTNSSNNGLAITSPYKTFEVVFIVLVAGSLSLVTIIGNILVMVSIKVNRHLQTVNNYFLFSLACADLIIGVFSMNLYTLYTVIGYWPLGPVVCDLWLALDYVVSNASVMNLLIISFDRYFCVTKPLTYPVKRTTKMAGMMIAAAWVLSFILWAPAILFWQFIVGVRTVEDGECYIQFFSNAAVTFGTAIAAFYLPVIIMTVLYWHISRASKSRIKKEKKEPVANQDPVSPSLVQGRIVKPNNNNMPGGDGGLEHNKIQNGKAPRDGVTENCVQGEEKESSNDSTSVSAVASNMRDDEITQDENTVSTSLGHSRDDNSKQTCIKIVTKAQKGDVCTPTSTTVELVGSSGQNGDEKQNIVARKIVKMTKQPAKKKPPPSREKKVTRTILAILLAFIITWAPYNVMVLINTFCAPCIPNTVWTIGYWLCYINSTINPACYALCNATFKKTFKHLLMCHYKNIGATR

[3] = target: Muscarinic acetylcholine receptor M3 (Rattus norvegicus, UniProt P08483); assay: Agonist activity at rat muscarinic M3 receptor expressed in CHO cells; type: functional, cell-based
[4] = target: T3, Muscarinic acetylcholine receptor M5 (Rattus norvegicus, UniProt P08911); assay: Agonist activity at rat muscarinic M5 receptor expressed in CHO cells; type: functional, cell-based
T3 sequence (P08911 whole entry): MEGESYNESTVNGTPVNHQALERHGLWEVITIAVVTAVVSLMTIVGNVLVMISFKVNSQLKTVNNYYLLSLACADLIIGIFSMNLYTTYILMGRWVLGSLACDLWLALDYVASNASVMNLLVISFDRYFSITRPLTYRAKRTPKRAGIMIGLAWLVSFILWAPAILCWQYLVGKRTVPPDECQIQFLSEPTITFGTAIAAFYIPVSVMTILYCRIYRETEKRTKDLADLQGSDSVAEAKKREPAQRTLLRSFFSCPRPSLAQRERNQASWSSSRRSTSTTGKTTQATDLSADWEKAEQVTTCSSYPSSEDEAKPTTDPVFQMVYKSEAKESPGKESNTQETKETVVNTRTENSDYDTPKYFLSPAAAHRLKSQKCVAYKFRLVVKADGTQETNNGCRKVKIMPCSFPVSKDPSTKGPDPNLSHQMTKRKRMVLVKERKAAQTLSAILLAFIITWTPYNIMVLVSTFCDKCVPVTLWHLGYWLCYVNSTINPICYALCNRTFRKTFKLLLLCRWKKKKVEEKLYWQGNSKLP

[5] = target: T4, Muscarinic acetylcholine receptor M1 (Rattus norvegicus, UniProt P08482); assay: Agonist activity at rat recombinant muscarinic M1 receptor by HTS cell based assay; type: functional
T4 sequence (P08482 whole entry): T1 sequence (whole entry)

[6] = target: T2, Muscarinic acetylcholine receptor M2; assay: Agonist activity at rat recombinant muscarinic M2 receptor by HTS cell based assay; type: functional
[7] = target: T3, Muscarinic acetylcholine receptor M5; assay: Agonist activity at rat recombinant muscarinic M5 receptor by HTS cell based assay; type: functional
[8] = target: T5, Muscarinic acetylcholine receptor M2 (Homo sapiens, UniProt P08172); assay: Agonist activity at human recombinant muscarinic M2 receptor by HTS cell based assay; type: functional
T5 sequence (P08172 whole entry): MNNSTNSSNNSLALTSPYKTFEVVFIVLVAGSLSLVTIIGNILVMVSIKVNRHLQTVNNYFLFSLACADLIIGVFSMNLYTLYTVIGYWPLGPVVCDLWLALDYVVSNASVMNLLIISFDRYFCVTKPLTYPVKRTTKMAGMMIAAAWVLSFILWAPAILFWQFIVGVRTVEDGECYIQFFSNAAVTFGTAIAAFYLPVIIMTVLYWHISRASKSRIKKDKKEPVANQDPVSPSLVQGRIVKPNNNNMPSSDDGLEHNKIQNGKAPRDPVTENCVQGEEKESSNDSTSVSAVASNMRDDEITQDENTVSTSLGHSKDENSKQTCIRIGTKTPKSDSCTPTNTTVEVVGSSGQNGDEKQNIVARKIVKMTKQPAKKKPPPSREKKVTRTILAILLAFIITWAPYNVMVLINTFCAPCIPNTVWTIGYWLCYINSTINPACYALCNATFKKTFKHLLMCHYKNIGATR

[9] = target: T6, Muscarinic acetylcholine receptor M5 (Homo sapiens, UniProt P08912); assay: Agonist activity at human recombinant muscarinic M5 receptor by HTS cell based assay; type: functional
T6 sequence (P08912 whole entry): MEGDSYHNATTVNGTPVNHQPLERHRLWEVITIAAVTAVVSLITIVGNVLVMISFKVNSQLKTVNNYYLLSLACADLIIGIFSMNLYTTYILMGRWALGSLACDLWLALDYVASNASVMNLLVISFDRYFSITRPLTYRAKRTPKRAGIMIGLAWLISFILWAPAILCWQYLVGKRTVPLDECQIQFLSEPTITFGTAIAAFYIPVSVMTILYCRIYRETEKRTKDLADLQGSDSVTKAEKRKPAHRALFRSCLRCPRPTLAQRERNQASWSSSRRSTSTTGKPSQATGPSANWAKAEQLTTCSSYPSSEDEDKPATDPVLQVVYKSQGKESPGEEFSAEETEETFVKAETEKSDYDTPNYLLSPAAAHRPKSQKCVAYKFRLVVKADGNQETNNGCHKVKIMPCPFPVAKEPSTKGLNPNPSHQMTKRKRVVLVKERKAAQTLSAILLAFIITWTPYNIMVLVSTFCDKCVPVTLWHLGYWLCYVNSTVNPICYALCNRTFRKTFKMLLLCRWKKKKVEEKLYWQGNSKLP

Sequence of D(2) dopamine receptor (P14416 whole entry): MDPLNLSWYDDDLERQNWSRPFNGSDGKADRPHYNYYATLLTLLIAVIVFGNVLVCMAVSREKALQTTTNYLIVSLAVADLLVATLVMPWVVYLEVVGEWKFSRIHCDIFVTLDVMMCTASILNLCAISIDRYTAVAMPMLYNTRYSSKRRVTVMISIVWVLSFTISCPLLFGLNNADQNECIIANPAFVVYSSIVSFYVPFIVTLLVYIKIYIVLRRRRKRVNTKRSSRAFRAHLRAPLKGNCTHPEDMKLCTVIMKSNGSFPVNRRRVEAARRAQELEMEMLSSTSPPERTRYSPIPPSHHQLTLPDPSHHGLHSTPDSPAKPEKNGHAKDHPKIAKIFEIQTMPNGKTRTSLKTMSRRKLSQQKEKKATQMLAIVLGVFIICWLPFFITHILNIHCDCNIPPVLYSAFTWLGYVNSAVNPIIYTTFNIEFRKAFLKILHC
Sequence of Muscarinic acetylcholine receptor M3 (P08483 whole entry): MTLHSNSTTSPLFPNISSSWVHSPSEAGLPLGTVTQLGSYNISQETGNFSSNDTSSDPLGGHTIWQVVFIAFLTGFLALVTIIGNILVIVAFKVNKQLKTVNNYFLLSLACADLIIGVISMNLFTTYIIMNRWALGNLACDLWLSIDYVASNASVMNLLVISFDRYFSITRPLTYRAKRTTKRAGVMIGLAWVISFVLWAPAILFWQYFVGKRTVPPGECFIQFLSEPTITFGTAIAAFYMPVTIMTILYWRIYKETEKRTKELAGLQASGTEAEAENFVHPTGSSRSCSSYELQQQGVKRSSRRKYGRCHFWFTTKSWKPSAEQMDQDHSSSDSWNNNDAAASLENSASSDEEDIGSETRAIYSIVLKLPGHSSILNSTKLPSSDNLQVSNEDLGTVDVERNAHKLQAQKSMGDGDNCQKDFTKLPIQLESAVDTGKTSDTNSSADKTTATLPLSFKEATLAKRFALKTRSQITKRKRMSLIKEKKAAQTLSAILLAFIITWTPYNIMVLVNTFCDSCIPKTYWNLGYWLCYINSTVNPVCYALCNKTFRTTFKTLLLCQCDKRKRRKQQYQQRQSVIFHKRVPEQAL

SMILES	pIC50 (D(2) dopamine receptor)	Emax [1] [%]	pEC50 [2]	pEC50 [3]	pEC50 [4]	pEC50 [5]	pEC50 [6]	pEC50 [7]	pEC50 [8]	pEC50 [9]
CCOC(=O)N1CCC(NCCNC(=O)c2ccccc2C)CC1	5.35	81	< 4.52	< 4.52	< 4.52	5.64	< 4.52	< 4.52	< 4.52	< 4.52
CCOC(=O)N1CCC(N2CCC[C@@H](NC(=O)c3ccccc3C)C2)CC1	< 4.52	96	< 4.52	< 4.52	< 4.52	5.89	< 4.52	< 4.52	< 4.52	< 4.52
